Where two headings read alike, the source gives them in different places. Starred links: 1 amine or outer side, 2 acyl side, 3 side chain; linkers in the order of their positions; H or OH if unused. Positions of bridges follow the written chain, without caps; N, C: chain ends. Non-standard residues stand in square brackets, D forms with d. Residues, ends and D or L forms follow the SMILES beside them. Phe(3-Me) = Cc1cccc(C[C@H](N)C(=O)O)c1; γGlu = O=C(O)[C@H](CCC(=O)[*:2])N[*:1]; 2Nal = N[C@@H](Cc1ccc2ccccc2c1)C(=O)O; Val(3-OH) = CC(C)(O)[C@H](N)C(=O)O; NMeE = CN[C@@H](CCC(=O)O)C(=O)O; Cit = NC(=O)NCCC[C@H](N)C(=O)O; Ahp(2) = CCCCC[C@H](N)C(=O)O; NMeNle = CCCC[C@H](NC)C(=O)O; Tle = CC(C)(C)[C@H](N)C(=O)O; NMeV = CN[C@H](C(=O)O)C(C)C; NHexGly = CCCCCCNCC(=O)O; Nle = CCCC[C@H](N)C(=O)O; Orn = NCCC[C@H](N)C(=O)O; Aun = NCCCCCCCCCCC(=O)O; AEEA = NCCOCCOCC(=O)O; NBuGly = CCCCNCC(=O)O
Target: T1, mouse VISTA (mVISTA) (Mus musculus, UniProt Q9D659)
T1 construct: expressed in transfected cells; host or cells: Human embryonic kidney 293T cells
T1 sequence (Q9D659 33-308): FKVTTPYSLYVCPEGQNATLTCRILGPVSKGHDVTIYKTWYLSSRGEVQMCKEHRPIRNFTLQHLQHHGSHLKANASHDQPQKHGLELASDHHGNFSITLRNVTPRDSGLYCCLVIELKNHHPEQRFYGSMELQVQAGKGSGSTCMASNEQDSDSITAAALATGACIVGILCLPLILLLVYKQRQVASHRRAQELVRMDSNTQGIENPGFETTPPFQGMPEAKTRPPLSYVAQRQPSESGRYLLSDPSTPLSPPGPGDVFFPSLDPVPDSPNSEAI
Experiment: Cell-Based Binding High-Content Assay For mVISTA (HC CBA mVISTA)
How it was run: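 Competition of compound with a biotinylated peptide (final 2 nM, 30 min at RT) for binding to mVISTA on 293T cells, run under no-wash or wash (1 h compound preincubation then removal) formats. Readout by Alexa 647–streptavidin imaging on a high-content platform; four-parameter logistic fit gave IC50.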

[1] = cell-based binding high-content assay, mVISTA, the 16th table, read-out: HC CBA mVISTA IC50
[2] = 293T cells expressing mouse VISTA, competition with biotinylated peptide (2 nM), read-out: HC CBA mVISTA IC50

## CCCCCCN1CC(=O)N[C@@H](Cc2ccc(O)cc2)C(=O)N[C@@H](CC(C)C)C(=O)NCC(=O)N[C@@H](CCCNC(=N)N)C(=O)N[C@@H](Cc2ccc(O)cc2)C(=O)N[C@@H](CCCCC)C(=O)N2CCC[C@H]2C(=O)N[C@@H](C(C)C)C(=O)N[C@@H](CC(=O)O)C(=O)N[C@H](C(=O)NCC(N)=O)CSCC(=O)N[C@@H](Cc2ccc3ccccc3c2)C(=O)N[C@@H](Cc2ccc(O)cc2)C(=O)N[C@@H](CC(=O)O)C1=O [Ex 1298] ({CH2CO}-[2Nal]YD[NHexGly]YLGRY[Ahp(2)]PVDCG-NH2; thioether N-14)
[1]
  IC50: 36.1 nM

## CCCCCCN1CC(=O)N[C@@H](Cc2ccc(O)cc2)C(=O)N[C@@H](CC(C)C)C(=O)N[C@@H](CC(N)=O)C(=O)N[C@@H](CCCNC(=N)N)C(=O)N(C)[C@@H](C(C)C)C(=O)N[C@@H](CCCCC)C(=O)N2CCC[C@H]2C(=O)N[C@@H](C(C)(C)C)C(=O)N[C@@H](CO)C(=O)N[C@H](C(=O)NCCOCCOCC(=O)N[C@@H](CCC(=O)NCCOCCOCC(=O)NCCCCCCCCCCC(=O)O)C(=O)O)CSCC(=O)N[C@@H](Cc2ccccc2)C(=O)N[C@@H](Cc2ccc(O)cc2)C(=O)N[C@@H](CC(=O)O)C1=O [compound 2271] ({CH2CO}-FYD[NHexGly]YLNR[NMeV][Ahp(2)]P[Tle]SC[AEEA][γGlu][AEEA][Aun]-OH; thioether N-14)
read-out: HC CBA mVISTA IC50
  IC50: 25.4 nM

## CCCCCCN1CC(=O)N[C@@H](Cc2ccc(O)cc2)C(=O)N[C@@H](CCCC)C(=O)N[C@@H](CC(=O)O)C(=O)N[C@@H](CCCN)C(=O)N[C@@H](CC(C)C)C(=O)N[C@@H](CCCCC)C(=O)N2CCC[C@H]2C(=O)N[C@@H](C(C)C)C(=O)N[C@@H](CC(=O)O)C(=O)N[C@H](C(=O)N[C@@H](CC(=O)O)C(N)=O)CSCC(=O)N[C@@H](Cc2ccc3ccccc3c2)C(=O)N[C@@H](Cc2ccc(O)cc2)C(=O)N[C@@H](CC(=O)O)C1=O [Ex 1268] ({CH2CO}-[2Nal]YD[NHexGly]Y[Nle]D[Orn]L[Ahp(2)]PVDCD-NH2; thioether N-14)
[1]
  IC50: 9.7 nM

## CCCCCCN1CC(=O)N[C@@H](Cc2ccc(O)cc2)C(=O)N[C@@H](CCCCC)C(=O)N[C@@H](CC(=O)O)C(=O)N[C@@H](CCCNC(=N)N)C(=O)N[C@@H](CC(C)C)C(=O)N[C@@H](CCCCC)C(=O)N2CCC[C@H]2C(=O)N[C@@H](C(C)C)C(=O)N[C@@H](CC(=O)O)C(=O)N[C@H](C(=O)NCC(=O)O)CSCC(=O)N[C@@H](Cc2ccccc2)C(=O)N[C@@H](Cc2ccc(O)cc2)C(=O)N[C@@H](CC(=O)O)C1=O [Example 1013] ({CH2CO}-FYD[NHexGly]Y[Ahp(2)]DRL[Ahp(2)]PVDCG-OH; thioether N-14)
[2]
  IC50: 17.1 nM

## CCCCCCN1CC(=O)N[C@@H](Cc2ccc(O)cc2)C(=O)N[C@@H](CCCC)C(=O)N[C@@H](CC(N)=O)C(=O)N[C@@H](CCCNC(N)=O)C(=O)N(C)[C@@H](CCCC)C(=O)N[C@@H](CCCCC)C(=O)N2CCC[C@H]2C(=O)N[C@@H](C(C)C)C(=O)N[C@@H](CC(=O)O)C(=O)N[C@H](C(=O)NCC(=O)O)CSCC(=O)N[C@@H](Cc2ccccc2)C(=O)N[C@@H](Cc2ccc(O)cc2)C(=O)N[C@@H](CC(=O)O)C1=O [Example 1082] ({CH2CO}-FYD[NHexGly]Y[Nle]N[Cit][NMeNle][Ahp(2)]PVDCG-OH; thioether N-14)
293T cells expressing mouse VISTA, competition with biotinylated peptide (2 nM), read-out: CBA mVISTA IC50
  IC50: 8.1 nM

## CCCCCCN1CC(=O)N[C@@H](Cc2ccc(O)cc2)C(=O)N[C@@H](CCCC)C(=O)N[C@@H](CC(N)=O)C(=O)N[C@@H](CCCNC(=N)N)C(=O)N(C)[C@@H](CCCC)C(=O)N[C@@H](CCCCC)C(=O)N2CCC[C@H]2C(=O)N[C@@H](C(C)(C)O)C(=O)N[C@@H](CO)C(=O)N[C@H](C(=O)NCCOCCOCC(=O)N[C@@H](CCC(=O)NCCOCCOCC(=O)NCCCCCCCCCCC(=O)O)C(=O)O)CSCC(=O)N[C@@H](Cc2ccccc2)C(=O)N[C@@H](Cc2c[nH]c3ccccc23)C(=O)N[C@@H](CC(=O)O)C1=O [compound 2250] ({CH2CO}-FWD[NHexGly]Y[Nle]NR[NMeNle][Ahp(2)]P[Val(3-OH)]SC[AEEA][γGlu][AEEA][Aun]-OH; thioether N-14)
read-out: HC CBA mVISTA IC50
  IC50: 50.4 nM

## CCCCCCN1CC(=O)N[C@@H](Cc2ccc(O)cc2)C(=O)N[C@@H](CCCC)C(=O)N[C@@H](CC(N)=O)C(=O)N[C@@H](CCCNC(=N)N)C(=O)N(C)[C@@H](CCC(=O)O)C(=O)N[C@@H](CCCCC)C(=O)N2CCC[C@H]2C(=O)N[C@@H](C(C)(C)C)C(=O)N[C@@H](CO)C(=O)N[C@H](C(=O)NCCOCCOCC(=O)N[C@@H](CCC(=O)NCCOCCOCC(=O)NCCCCCCCCCCC(=O)O)C(=O)O)CSCC(=O)N[C@@H](Cc2ccccc2)C(=O)N[C@@H](Cc2c[nH]c3ccccc23)C(=O)N[C@@H](CC(=O)O)C1=O [compound 2248] ({CH2CO}-FWD[NHexGly]Y[Nle]NR[NMeE][Ahp(2)]P[Tle]SC[AEEA][γGlu][AEEA][Aun]-OH; thioether N-14)
read-out: HC CBA mVISTA IC50
  IC50: 45.4 nM

## CCCCCCN1CC(=O)N[C@@H](Cc2ccc(O)cc2)C(=O)N[C@@H](CCCC)C(=O)N[C@@H](CC(N)=O)C(=O)N[C@@H](CCCNC(=N)N)C(=O)N(C)[C@@H](CCCC)C(=O)N[C@@H](CCCCC)C(=O)N2CCC[C@H]2C(=O)N[C@@H](C(C)(C)C)C(=O)N[C@@H](CO)C(=O)N[C@H](C(=O)NCCOCCOCC(=O)N[C@@H](CCC(=O)NCCOCCOCC(=O)NCCCCCCCCCCC(=O)O)C(=O)O)CSCC(=O)N[C@@H](Cc2ccccc2)C(=O)N[C@@H](Cc2c[nH]c3ccccc23)C(=O)N[C@@H](CC(=O)O)C1=O [compound 2226] ({CH2CO}-FWD[NHexGly]Y[Nle]NR[NMeNle][Ahp(2)]P[Tle]SC[AEEA][γGlu][AEEA][Aun]-OH; thioether N-14)
read-out: HC CBA mVISTA IC50
  IC50: 24.4 nM

## CCCCCCN1CC(=O)N[C@@H](Cc2ccc(O)cc2)C(=O)N[C@@H](CCCCN)C(=O)N[C@@H](CC(=O)O)C(=O)N[C@@H](CCCN)C(=O)N[C@@H](CC(C)C)C(=O)N[C@@H](CCCCC)C(=O)N2CCC[C@H]2C(=O)N[C@@H](C(C)C)C(=O)N[C@@H](CO)C(=O)N[C@H](C(=O)NCC(=O)O)CSCC(=O)N[C@@H](Cc2ccccc2)C(=O)N[C@@H](Cc2ccc(O)cc2)C(=O)N[C@@H](CC(=O)O)C1=O [Example 1051] ({CH2CO}-FYD[NHexGly]YKD[Orn]L[Ahp(2)]PVSCG-OH; thioether N-14)
[2]
  IC50: 11.5 nM

## CCCCCCN1CC(=O)N[C@@H](Cc2ccc(O)cc2)C(=O)N[C@@H](C(C)C)C(=O)NCC(=O)N[C@@H](CCCNC(=N)N)C(=O)N[C@@H](CC(C)C)C(=O)N[C@@H](CCCCC)C(=O)N2CCC[C@H]2C(=O)N[C@@H](C(C)C)C(=O)N[C@@H](CC(=O)O)C(=O)N[C@H](C(=O)N[C@@H](CO)C(=O)N[C@@H](CCCCN)C(=O)N[C@@H](CC(N)=O)C(=O)O)CSCC(=O)N[C@@H](Cc2ccc3ccccc3c2)C(=O)N[C@@H](Cc2ccc(O)cc2)C(=O)N[C@@H](CC(=O)O)C1=O [Example 1163] ({CH2CO}-[2Nal]YD[NHexGly]YVGRL[Ahp(2)]PVDCSKN-OH; thioether N-14)
[2]
  IC50: 22.6 nM

## CCCCCCN1CC(=O)N[C@@H](Cc2ccc(O)cc2)C(=O)N[C@@H](CC(C)C)C(=O)N[C@@H](CC(N)=O)C(=O)N[C@@H](CCCNC(=N)N)C(=O)N[C@@H](CC(C)C)C(=O)N[C@@H](CCCCC)C(=O)N2CCC[C@H]2C(=O)N[C@@H](C(C)C)C(=O)N[C@@H](C(C)C)C(=O)N[C@H](C(=O)N[C@@H](CO)C(=O)O)CSCC(=O)N[C@@H](Cc2cccc(C)c2)C(=O)N[C@@H](Cc2ccc(O)cc2)C(=O)N[C@@H](CC(=O)O)C1=O [compound 1434] ({CH2CO}-[Phe(3-Me)]YD[NHexGly]YLNRL[Ahp(2)]PVVCS-OH; thioether N-14)
The 19th table, scaffold drawing 22, read-out: HC CBA mVISTA IC50
  IC50: 20.4 nM

## CCCCCCN1CC(=O)N[C@@H](Cc2ccc(O)cc2)C(=O)N[C@@H](CC(C)C)C(=O)N[C@@H](CC(N)=O)C(=O)N[C@@H](CCCNC(=N)N)C(=O)N(C)[C@@H](C(C)C)C(=O)N[C@@H](CCCCC)C(=O)N2CCC[C@H]2C(=O)N[C@@H](C(C)(C)C)C(=O)N[C@@H](CO)C(=O)N[C@H](C(=O)NCCOCCOCC(=O)N[C@@H](CCC(=O)NCCOCCOCC(=O)NCCCCCCCCCCC(=O)O)C(=O)O)CSCC(=O)N[C@@H](Cc2ccccc2)C(=O)N[C@@H](Cc2c[nH]c3ccccc23)C(=O)N[C@@H](CC(=O)O)C1=O [compound 2272] ({CH2CO}-FWD[NHexGly]YLNR[NMeV][Ahp(2)]P[Tle]SC[AEEA][γGlu][AEEA][Aun]-OH; thioether N-14)
read-out: HC CBA mVISTA IC50
  IC50: 34.4 nM

## CCCCC[C@@H]1NC(=O)[C@H](CC(C)C)NC(=O)[C@H](CCCNC(=N)N)NC(=O)[C@H](CC(N)=O)NC(=O)[C@H](CCCC)NC(=O)[C@H](Cc2ccc(O)cc2)NC(=O)CN(CCCC)C(=O)[C@H](CC(=O)O)NC(=O)[C@H](Cc2ccc(O)cc2)NC(=O)[C@H](Cc2ccc3ccccc3c2)NC(=O)CSC[C@@H](C(=O)NCC(=O)O)NC(=O)[C@H](CC(=O)O)NC(=O)[C@H](C(C)C)NC(=O)[C@@H]2CCCN2C1=O [Ex 1270] ({CH2CO}-[2Nal]YD[NBuGly]Y[Nle]NRL[Ahp(2)]PVDCG-OH; thioether N-14)
[1]
  IC50: 2.4 nM

## CCCCCCN1CC(=O)N[C@@H](Cc2ccc(O)cc2)C(=O)N[C@@H](C(C)C)C(=O)NCC(=O)N[C@@H](CCCNC(=N)N)C(=O)N[C@@H](CC(C)C)C(=O)N[C@@H](CCCCC)C(=O)N2CCC[C@H]2C(=O)N[C@@H](C(C)C)C(=O)N[C@@H](CO)C(=O)N[C@H](C(=O)NCC(=O)O)CSCC(=O)N[C@@H](Cc2ccc3ccccc3c2)C(=O)N[C@@H](Cc2ccc(O)cc2)C(=O)N[C@@H](CC(=O)O)C1=O [Ex 1277] ({CH2CO}-[2Nal]YD[NHexGly]YVGRL[Ahp(2)]PVSCG-OH; thioether N-14)
[1]
  IC50: 23.2 nM

Reference: US20240218022A1, “ANTI-VISTA MACROCYCLIC PEPTIDES AND COMPOSITIONS” (BRISTOL-MYERS SQUIBB COMPANY, priority 2022, published 2024)
